One block for each molecule: values may come before it.
Tests used:
[1] = Oral bioavailability in C57BL/6 mouse at 1 mg/kg measured upto 24 hrs by LC-MS/MS analysis; assay type: ADME, organism-based; settings: in vivo
[2] = Lipophilicity, logD of the compound at pH 7.4 by shake-flask assay; assay type: physicochemical; settings: buffer
[3] = Clearance in Han Wistar rat at 1 mg/kg, po measured upto 24 hrs by LC-MS/MS analysis; assay type: ADME, organism-based; settings: in vivo
[4] = Oral bioavailability in Han Wistar rat at 1 mg/kg measured upto 24 hrs by LC-MS/MS analysis; assay type: ADME, organism-based; settings: in vivo
[5] = Clearance in C57BL/6 mouse at 1 mg/kg, po measured upto 24 hrs by LC-MS/MS analysis; assay type: ADME, organism-based; settings: in vivo
[6] = Chromatographic hydrophobicity index, logD of the compound; assay type: physicochemical
[7] = Half-life in C57BL/6 mouse at 1 mg/kg, po measured upto 24 hrs by LC-MS/MS analysis; assay type: ADME, organism-based; settings: in vivo
[8] = Volume of distribution at steady state in Beagle dog at 1 mg/kg, po measured upto 24 hrs by LC-MS/MS analysis; assay type: ADME, organism-based, Canis lupus familiaris; settings: in vivo
[9] = Volume of distribution at steady state in Han Wistar rat at 1 mg/kg, po measured upto 24 hrs by LC-MS/MS analysis; assay type: ADME, organism-based; settings: in vivo
[10] = Clearance in Beagle dog at 1 mg/kg, po measured upto 24 hrs by LC-MS/MS analysis; assay type: ADME, organism-based, Canis lupus familiaris; settings: in vivo
[11] = Half-life in Han Wistar rat at 1 mg/kg, po measured upto 24 hrs by LC-MS/MS analysis; assay type: ADME, organism-based; settings: in vivo
[12] = Oral bioavailability in Beagle dog at 1 mg/kg measured upto 24 hrs by LC-MS/MS analysis; assay type: ADME, organism-based, Canis lupus familiaris; settings: in vivo
[13] = Volume of distribution at steady state in C57BL/6 mouse at 1 mg/kg, po measured upto 24 hrs by LC-MS/MS analysis; assay type: ADME, organism-based; settings: in vivo
[14] = Half-life in Beagle dog at 1 mg/kg, po measured upto 24 hrs by LC-MS/MS analysis; assay type: ADME, organism-based, Canis lupus familiaris; settings: in vivo
[15] = Drug uptake in mouse plasma at 30 mg/kg, po; assay type: ADME, organism-based; settings: in vivo
[16] = Dissociation constant, pKa of the compound; assay type: physicochemical
[17] = target: T1, Androgen receptor (Homo sapiens) (UniProt P10275); experiment: Induction of AR degradation in human VCaP cells relative to control; assay type: cell-based
T1 sequence (whole entry): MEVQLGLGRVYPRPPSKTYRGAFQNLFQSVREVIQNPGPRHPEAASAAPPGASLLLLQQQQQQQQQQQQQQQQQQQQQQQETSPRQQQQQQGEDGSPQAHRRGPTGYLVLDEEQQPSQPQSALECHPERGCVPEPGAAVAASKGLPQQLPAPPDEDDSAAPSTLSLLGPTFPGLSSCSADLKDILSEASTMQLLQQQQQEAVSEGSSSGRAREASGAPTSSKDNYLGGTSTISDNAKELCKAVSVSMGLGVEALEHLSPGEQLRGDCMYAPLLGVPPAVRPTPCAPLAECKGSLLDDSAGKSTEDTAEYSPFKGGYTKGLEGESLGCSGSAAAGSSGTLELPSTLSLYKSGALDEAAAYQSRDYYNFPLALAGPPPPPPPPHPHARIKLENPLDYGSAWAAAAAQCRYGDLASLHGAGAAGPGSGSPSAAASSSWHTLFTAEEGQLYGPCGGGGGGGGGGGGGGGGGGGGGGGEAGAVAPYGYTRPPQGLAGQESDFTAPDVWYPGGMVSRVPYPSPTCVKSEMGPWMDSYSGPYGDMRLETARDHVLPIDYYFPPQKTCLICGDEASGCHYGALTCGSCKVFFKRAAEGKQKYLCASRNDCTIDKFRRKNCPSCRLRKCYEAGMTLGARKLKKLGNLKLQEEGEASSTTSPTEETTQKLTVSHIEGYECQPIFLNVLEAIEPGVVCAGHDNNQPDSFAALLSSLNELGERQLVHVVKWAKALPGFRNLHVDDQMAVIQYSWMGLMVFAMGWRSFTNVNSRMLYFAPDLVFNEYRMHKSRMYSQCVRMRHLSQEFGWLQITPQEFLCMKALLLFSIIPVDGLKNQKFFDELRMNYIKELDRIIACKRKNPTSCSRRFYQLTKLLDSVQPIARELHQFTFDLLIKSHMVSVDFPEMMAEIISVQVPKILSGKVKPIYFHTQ

Androgen receptor [18] = target: T2, Androgen receptor (Homo sapiens, UniProt P10275); experiment: Induction of AR degradation in human VCaP cells; assay type: cell-based
T2 sequence (P10275 whole entry): T1 sequence (whole entry)

Estrogen receptor = target: T3, Estrogen receptor (Homo sapiens, UniProt P03372); experiment: Induction of ERalpha degradation in human MCF7 cells; assay type: cell-based
T3 sequence (P03372 whole entry): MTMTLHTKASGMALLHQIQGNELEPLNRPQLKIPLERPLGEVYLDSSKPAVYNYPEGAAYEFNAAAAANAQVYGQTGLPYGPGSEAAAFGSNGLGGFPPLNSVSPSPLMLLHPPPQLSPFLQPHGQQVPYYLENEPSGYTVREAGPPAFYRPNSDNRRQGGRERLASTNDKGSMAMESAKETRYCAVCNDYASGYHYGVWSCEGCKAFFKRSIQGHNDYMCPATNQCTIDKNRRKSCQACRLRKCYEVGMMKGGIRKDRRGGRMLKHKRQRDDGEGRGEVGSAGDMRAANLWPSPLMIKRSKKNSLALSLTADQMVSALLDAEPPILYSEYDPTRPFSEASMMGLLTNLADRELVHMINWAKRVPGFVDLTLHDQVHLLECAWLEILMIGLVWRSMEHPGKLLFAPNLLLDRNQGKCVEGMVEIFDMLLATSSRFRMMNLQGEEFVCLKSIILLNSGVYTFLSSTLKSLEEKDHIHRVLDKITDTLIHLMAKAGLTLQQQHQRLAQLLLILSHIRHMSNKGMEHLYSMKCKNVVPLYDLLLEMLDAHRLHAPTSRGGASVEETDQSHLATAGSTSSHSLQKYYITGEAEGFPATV

[19] = target: T4, Estrogen receptor (Homo sapiens) (UniProt P03372); experiment: Induction of ERalpha degradation in human MCF7 cells relative to control; assay type: cell-based
T4 sequence (whole entry): T3 sequence (P03372 whole entry)

[20] = Drug uptake in mouse plasma at 60 mg/kg, po; assay type: ADME, organism-based; settings: in vivo
Androgen receptor [21] = target: T2, Androgen receptor; experiment: Induction of AR degradation in human LNCaP cells; assay type: cell-based
[22] = target: T1, Androgen receptor (Homo sapiens); experiment: Induction of AR degradation in human LNCaP cells relative to control; assay type: cell-based

Compound: Cc1ncsc1-c1ccc([C@H](CC[C@H](C)CCN2CCC(c3ccc4c(c3)n3c5cccc(Br)c5c(=O)nc3n4C3CCCC3)CC2)NC(=O)[C@@H]2C[C@@H](O)CN2C(=O)[C@@H](NC(=O)C2(F)CC2)C(C)(C)C)cc1
- Drug uptake [15]: Active

Compound: Cn1c(=O)n(C2CCC(=O)NC2=O)c2cccc(C#CCOC3CCN(C[C@H]4CC[C@H](n5cc(NC(=O)c6cnn7ccc(N8C[C@H]9C[C@@H]8CO9)nc67)c(C(F)F)n5)CC4)CC3)c21 (stereo not given in full) [KT-474]
- bioavailability [1]: 24%
- logD [2]: 3.6
- CL/F [3]: 51 mL/min/kg
- bioavailability [4]: 7%
- CL/F [5]: 17 mL/min/kg
- pKa [16]: 8.5
- CHI [6]: 2.3
- Vdss [8]: 6.7 L/kg
- Vdss [9]: 7.7 L/kg
- CL/F [10]: 16 mL/min/kg
- bioavailability [12]: 51%
- Vdss [13]: 2.7 L/kg

Compound: C[C@@H]1Cc2c(n(C)c3ccccc23)[C@@H](c2cnc(N3CCC(CCN4CCN(c5ccc6c(c5)CN(C5CCC(=O)NC5=O)C6=O)CC4)CC3)nc2)N1CC(C)(C)F (mixture of isomers)
- bioavailability [1]: 38%
- CL/F [5]: 5.3 mL/min/kg
- CHI [6]: 7

Compound: Cc1ncsc1-c1ccc(CNC(=O)[C@@H]2C[C@@H](O)CN2C(=O)[C@@H](NC(=O)CCCCCCCCCCNC(=O)O[C@H]2C[C@@H](C)C=C3C=C[C@H](C)[C@H](CC[C@@H]4C[C@@H](O)CC(=O)O4)[C@H]32)C(C)(C)C)cc1
- Drug uptake [20]: Active

Compound: C[C@@H]1Cc2c([nH]c3ccccc23)[C@@H](c2cnc(N3CCC(CNC4CCN(c5ccc6c(c5)CN(C5CCC(=O)NC5=O)C6=O)CC4)CC3)nc2)N1CC(C)(C)F (stereo not given in full)
- bioavailability [1]: < 1%
- CL/F [5]: 26.6 mL/min/kg
- CHI [6]: 4.7
- IC50 (Estrogen receptor): ≤ 1 nM
- Emax [19]: > 90%

Compound: C[C@@H]1Cc2c([nH]c3ccccc23)[C@@H](c2cnc(N3CCC(CCN4CCN(c5ccc6c(c5)CN(C5CCC(=O)NC5=O)C6=O)CC4)CC3)nc2)N1CC(C)(C)F (stereo not given in full)
- bioavailability [1]: 15%
- CL/F [5]: 5 mL/min/kg
- CHI [6]: 6.1
- IC50 (Estrogen receptor): ≤ 1 nM
- Emax [19]: > 90%

Compound: C[C@@H]1Cc2c([nH]c3ccccc23)[C@@H](c2cnc(N3CCC(NC4CCN(c5ccc6c(c5)CN(C5CCC(=O)NC5=O)C6=O)CC4)CC3)nc2)N1CC(C)(C)F (stereo not given in full)
- bioavailability [1]: < 1%
- CL/F [5]: 51.4 mL/min/kg
- CHI [6]: 4.6
- IC50 (Estrogen receptor): ≤ 1 nM
- Emax [19]: > 90%

Compound: C[C@@H]1Cc2c([nH]c3ccccc23)[C@@H](c2cnc(N3CCC(CN(C)C4CCN(c5ccc6c(c5)CN(C5CCC(=O)NC5=O)C6=O)CC4)CC3)nc2)N1CC(C)(C)F (stereo not given in full)
- bioavailability [1]: 12%
- CL/F [5]: 19.3 mL/min/kg
- CHI [6]: 5.6
- IC50 (Estrogen receptor): ≤ 1 nM
- Emax [19]: > 90%

Compound: Cc1ncsc1-c1ccc([C@H](C)NC(=O)[C@@H]2C[C@@H](O)CN2C(=O)[C@@H](NC(=O)COCCCCCNc2ccc(C(=O)N[C@H]3C(C)(C)[C@H](Oc4ccc(C#N)c(Cl)c4)C3(C)C)cc2)C(C)(C)C)cc1
- bioavailability [1]: 2%
- CL/F [5]: 4.7 mL/min/kg
- CHI [6]: 5.9
- DC50 (Androgen receptor [21]): 6 nM
- Emax [22]: 96%

Further lines, results first:

- bioavailability [1]: 65%
- logD [2]: 4.8
- CL/F [3]: 9 mL/min/kg
- bioavailability [4]: 51%
- CL/F [5]: 3.9 mL/min/kg
- CHI [6]: 5.1
- half-life [7]: 13 h
- Vdss [8]: 13 L/kg
- Vdss [9]: 7.8 L/kg
- CL/F [10]: 4.7 mL/min/kg
- half-life [11]: 9.3 h
- bioavailability [12]: 14%
- Vdss [13]: 3.8 L/kg
- half-life [14]: 32 h
Compound: N#Cc1ccc(O[C@H]2CC[C@H](NC(=O)c3ccc(N4CCC(CN5CCN(c6cc7c(cc6F)C(=O)N(C6CCC(=O)NC6=O)C7=O)CC5)CC4)nn3)CC2)cc1Cl (stereo not given in full) [BAVDEGALUTAMIDE]

- bioavailability [1]: 59%
- logD [2]: 4.6
- CL/F [3]: 28 mL/min/kg
- bioavailability [4]: 24%
- CL/F [5]: 35 mL/min/kg
- CHI [6]: 5.3
- half-life [7]: 6.2 h
- CL/F [10]: 3 mL/min/kg
- half-life [11]: 15 h
- bioavailability [12]: 5%
- half-life [14]: 11 h
Compound: O=C1CC[C@H](N2Cc3cc(N4CCN(CC5CCN(c6ccc([C@@H]7c8ccc(O)cc8CC[C@@H]7c7ccccc7)cc6)CC5)CC4)ccc3C2=O)C(=O)N1 [VEPDEGESTRANT]

- Emax [17]: < 50%
- DC50 (Androgen receptor [18]): 1 nM
Compound: COc1cc(O[C@H]2C(C)(C)[C@H](NC(=O)c3ccc(N4CCC(CN5CCN(c6ccc(C(=O)N[C@@H]7CCC(=O)NC7=O)c(F)c6)CC5)CC4)cc3)C2(C)C)ccc1C#N

- bioavailability [1]: 45%
- CL/F [5]: 6.1 mL/min/kg
- CHI [6]: 6.1
- IC50 (Estrogen receptor): ≤ 1 nM
- Emax [19]: > 90%
Compound: C[C@@H]1Cc2c([nH]c3ccccc23)[C@@H](c2cnc(N3CCC(CN4CCN(c5ccc6c(c5)CN(C5CCC(=O)NC5=O)C6=O)CC4)CC3)nc2)N1CC(C)(C)F (stereo not given in full)

- bioavailability [1]: 58%
- logD [2]: 4.7
- CL/F [3]: 16 mL/min/kg
- bioavailability [4]: 38%
- CL/F [5]: 4.2 mL/min/kg
- CHI [6]: 5
- half-life [7]: 6.8 h
- Vdss [8]: 15 L/kg
- Vdss [9]: 9.1 L/kg
- Emax [17]: > 70%
- CL/F [10]: 6.4 mL/min/kg
- half-life [11]: 7.4 h
- bioavailability [12]: 33%
- Vdss [13]: 2.3 L/kg
- half-life [14]: 31 h
- DC50 (Androgen receptor [18]): < 1 nM
Compound: COc1cc(O[C@H]2C(C)(C)[C@H](NC(=O)c3ccc(N4CCC(CN5CCN(c6ccc(C(=O)N[C@H]7CCC(=O)NC7=O)c(F)c6)CC5)CC4)cc3)C2(C)C)ccc1C#N [LUXDEGALUTAMIDE]
